One data set deals with MOR (Homo sapiens (Human), UniProt P35372). Put plainly: MOR functional annotations (method not given). The following applies: for MOR agonist (potency annotation under structure): Table 4 caption line; for functional classification given with the label: binding table, compound cell.
Data set [1] is described as follows: Pharmacokinetics, serum and brain levels. Particulars: mouse, in vivo. As to the method: Studies were performed by the Preclinical Therapeutics Core and the Drug Studies Unit at the University of California San Francisco. […] All studies were performed with approved mouse protocols from the institutional animal care and use committees.
Data set [2] concerns mice. Put plainly: Formalin injection assay. Particulars: mouse, in vivo.
Data set [3] addresses T1, μOR (Homo sapiens (Human), UniProt P35372). Put plainly: β-arrestin2 recruitment by BRET with GRK2 co-expression. Format: cell-based.
The target in data set [4] is T1, μOR. Kind of data set: β-arrestin2 recruitment by BRET without GRK2. It is filed as cell-based. The following applies: no GRK2.
For data set [5], the system named is C57BL/6J mice. Kind of data set: Tail-flick analgesia. The following applies: mouse, in vivo.
Another data set concerns the target nociceptin receptor (Homo sapiens (Human), UniProt P41146). Kind of data set: Gi/o Glosensor assay at nociceptin receptor. Format: cell-based.
Data set [6] addresses T1, μOR. Put plainly: β-arrestin recruitment, PathHunter enzyme complementation (OPRM1 CHO-K1). It is filed as cell-based.
In data set [7] the target is T1, μOR. Put plainly: Receptor internalization (PathHunter, U2OS). It is filed as cell-based. The following applies: compared to DAMGO and morphine.
The target of data set [8] is T2, κOR (Homo sapiens (Human), UniProt P41145). Kind of data set: Gi/o Glosensor assay at κOR. It is filed as cell-based.
Data set [9] has as its target T1, μOR. Put plainly: Calcium release (FLIPR). Format: cell-based. As to the method:
Calcium release was measured using a FLIPR^TETRA fluorescence imaging plate reader (Molecular Devices). Calcium release experiments were run in parallel to Gi/o Glosensor experiments with the same HEKT cells transfected with μOR, except cells for FLIPR were plated in poly-lysine coated 384-well black clear bottom cell culture plates. […] Dye was incubated for 1 hour at 37° C. Afterwards, cells were equilibrated to room temperature, and fluorescence in each well was read for the initial 10 seconds to establish a baseline. Afterwards, 10 μL of drug (3×) was added per well and the maximum-fold increase in fluorescence was determined as fold-over-baseline. Drug solutions used for the FLIPR assay were exactly the same as used for Gi/o Glosensor experiments. To activate endogenous Gq-coupled receptors as a positive control for calcium release, TFLLR-NH2 (10 μM, PAR-1 selective agonist) was used.

The test system of data set [10] is C57BL/6J mice. Kind of data set: Hot-plate analgesia. It is filed as in vivo, mouse.
Data set [11] relates to Oprm1−/− and wild-type C57Bl/6J mice. Put plainly: Hot plate: affective/reflexive subcategorization and μOR knockout mice. It is filed as in vivo, mouse.
Data set [12] can be described thus: Metabolism by mouse liver microsomes. The following applies: signaling experiments with resulting metabolite pool. It is filed as in vitro ADME.
The target of data set [13] is T1, μOR. Put plainly: Radioligand depletion assay for irreversible binding, wild-type μOR.
Data set [14] deals with T1, μOR. Put plainly: BRET-based cAMP accumulation assay (CAMYEL) for SAR of PZM21-29. The following applies: Gi/o signaling, FIG. 4 analogs. Format: cell-based.
Data set [15] has as its target T2, κOR. Put plainly: Radioligand binding at κOR (PDSP). Particulars: Table 2; no Ki, below 50%.
A further data set concerns the target hMOR + Gqi5 (Homo sapiens (Human), UniProt P35372). Kind of data set: IP accumulation assay hMOR + Gqi5. Particulars: % morphine, at 10 μM. Format: cell-based.
Data set [16] has as its target T1, μOR. Kind of data set: Radioligand competition binding vs 3H-diprenorphine at μOR.
Data set [17] relates to mice. Put plainly: Whole body plethysmography (respiration). The following applies: equianalgesic doses: PZM21 40 mg/kg, TRV130 […], morphine 10 mg/kg.
In data set [18] the target is T1, μOR. Format: cell-based.

Molecules are shown by their SMILES. “Also recorded” adds a separate entry of the source.

For `C[C@@H](Cc1ccsc1)NC(=O)NC[C@H](Cc1ccccc1)N(C)C` [(S,S)-12, 1-[(S)-2-(Dimethylamino)-3-phenylpropyl]-3-[(S)-1-(thiophen-3-yl)propan-2-yl]urea], the “MOR agonist (potency annotation under structure)” value on MOR is recorded as “(S,S)-12 12 nM MOR agonist”.

As for `Cc1cc(O)cc(C)c1C[C@@H](CNC(=O)NCCc1ccsc1)N(C)C` [DD 34L, (S)-1-(2-(dimethylamino)-3-(4-hydroxy-2,6-dimethylphenyl)propyl)-3-(2-(thiophen-3-yl)ethyl)urea], on MOR, the “functional classification given with the label” value is “DD 34L (ANTAGONIST) [drawing 449]”.

With `C[C@@H](Cc1ccsc1)NC(=O)NC[C@H](Cc1ccc(O)cc1)N(C)C` [PZM21, 1-[(S)-2-(Dimethylamino)-3-(4-hydroxyphenyl)propyl]-3-((S)-1-(thiophen-3-yl)propan-2-yl)urea], the “blood brain barrier penetration” value in data set [1] was “substantial fraction”. Further, in the data set with mice [2], the formalin injection nociception result is listed as “active”. The “arrestin recruitment with over-expressed GRK2” value at μOR [3] is “weak arrestin recruitment efficacy; also recorded: we observe arrestin recruitment”. Besides, the “β-arrestin2 recruitment in the absence of GRK2” value on μOR [4] is reported as “no β-arrestin2 recruitment”. In the data set on C57BL/6J mice [5], the tail-flick analgesia result is on record as “no activity; also recorded: no analgesic effect”. Besides, the “nociceptin receptor agonist activity” value at nociceptin receptor is “no detectable”. At μOR [6], the “β-arrestin2 recruitment in PathHunter assay” value is reported as “undetectable; also recorded: minimal recruitment; also recorded: no detectable”. In addition, at μOR [7], the μOR internalization entry is “minimal level”. For the same compound, the “κOR agonist activity” value at κOR [8] is reported as “no detectable”. Besides, the “mode of action at κOR” value at κOR [8] (antagonist mode) is listed as “antagonist”. On μOR [9], the calcium release entry is listed as “no activity”. Further, the “hot-plate % MPE” value in the data set on C57BL/6J mice [10] (15 minutes after highest dose tested, s.c.) came to 87%. For the same compound, the “hot-plate analgesia” value in the data set on C57BL/6J mice [10] (mouse, in vivo) was “dose-dependent analgesia”. Besides, the “analgesic response in μOR knockout mice” value in data set [11] (Oprm1−/− mice, hot plate) was “completely ablates”. Besides, in data set [11] (hot plate 52.5° C.), the “affective vs reflexive component of pain” value is given as “only modulates the affective component of pain; also recorded: solely confers analgesia to the affective component of pain”. The “μOR activation by metabolite pool” value in [12] was “no evidence of a metabolite with more potent activation of the μOR”.

On to `CN(C)[C@H](CNC(=O)NCCc1cn(CCSSCCN=[N+]=[N-])nn1)Cc1ccc(O)cc1` [PZM29, (S)-1-(2-(1-(2-((2-Azidoethyl)disulfanyl)ethyl)-1H-1,2,3-triazol-4-yl)ethyl)-3-(2-(dimethylamino)-3-(4-hydroxyphenyl)propyl)urea×CF3COOH], for which the “irreversible binding to wild-type μOR” value at μOR [13] was “not the wild-type receptor”. On μOR [14], the “efficacy and potency as agonist” value is “retains its efficacy as an agonist”.

For `CN(C=O)[C@H](CNC(=O)NCCc1ccccc1)Cc1ccc(O)cc1` [PZM28, (S)—N-(1-(4-Hydroxyphenyl)-3-(3-phenethylureido)propan-2-yl)-N-methylformamide], on μOR [14], the “loss of potency relative to parent” value turned out to be 1000 fold.

With `CN(Cc1nnc(C2CC2)n1C)C(=O)NC[C@@H](Cc1ccccc1)N(C)C` [Compound 10], at κOR [15], the “κOR Ki, given as <50%” value is under 50%.

With `CN(CC1CC1)[C@H](CNC(=O)NCCc1ccccc1)Cc1ccc(O)cc1` [PZM27, (S)-1-(2-((Cyclopropylmethyl)(methyl)amino)-3-(4-hydroxyphenyl)propyl)-3-phenethylurea×CF3COOH], at μOR [14], the “efficacy and potency as agonist” value is “decreased efficacy”; the “loss of potency relative to parent” value is listed as 30 fold.

`CN(C)[C@@H](CNC(=O)NC[C@@H](O)c1cnn(C)c1)Cc1ccccc1` [Compound 11]: the “κOR Ki, given as <50%” value at κOR [15] is listed as under 50%.

For `CN(C)[C@H](CNC(=O)NCCc1ccsc1)Cc1ccc(O)cc1` [DD 16, (S)-1-(2-(dimethylamino)-3-(4-hydroxyphenyl)propyl)-3-(2-(thiophen-3-yl)ethyl)urea], the “MOR agonist (potency annotation under structure)” value at MOR is “(23) 58 nM MOR agonist”.

Consider `Cc1cc(O)cc(C)c1C[C@@H](CNC(=O)N[C@H](C)Cc1ccsc1)N(C)C` [BD 131LR, 1-((S)-2-(dimethylamino)-3-(4-hydroxy-2,6-dimethylphenyl)propyl)-3-((R)-1-(thiophen-3-yl)propan-2-yl)urea], for which the “hMOR + Gqi5 IP accumulation assay efficacy a @ 10 μM” value on hMOR + Gqi5 is “@ 10 μMa: 10%”.

With `O=C(Cc1cn2ccccc2n1)NCC1(c2ccccc2)CCC1` [Compound 9], on μOR [16], the “μOR Ki column, given as <50%” value is on record as under 50%.

Regarding `Cc1nc(CNC(=O)NC[C@@H](Cc2ccccc2)N(C)C)sc1C` [Compound 15], the “κOR Ki, given as <50%” value at κOR [15] is reported as under 50%.

In the case of `COc1ccsc1CNCC[C@@]1(c2ccccn2)CCOC2(CCCC2)C1` [TRV130, reference compound], the “arrestin recruitment with over-expressed GRK2” value at μOR [3] is listed as “we observe arrestin recruitment”. For the same compound, the “β-arrestin2 recruitment in the absence of GRK2” value on μOR [4] is listed as “no β-arrestin2 recruitment”. The “respiration frequency / respiratory depression” value in the data set on mice [17] is recorded as “significantly depresses respiration at 15 minutes”.

For the compound `C[C@H](Cc1ccsc1)NC(=O)NC[C@H](Cc1ccc(O)cc1)N(C)C` [(S,R)-21, 1-[(S)-2-(Dimethylamino)-3-(4-hydroxyphenyl)propyl]-3-((R)-1-(thiophen-3-yl)propan-2-yl)urea], at μOR [18], the “Gi/o activation / μOR agonist activity” value is “more potent partial agonist of the μOR”.

On to `Cc1cc(O)cc(C)c1C[C@@H](CNC(=O)NCCN1C(=O)C=CC1=O)N(C)C` [DD 144, (S)-1-(2-(dimethylamino)-3-(4-hydroxy-2,6-dimethylphenyl)propyl)-3-(2-(2,5-dioxo-2,5-dihydro-1H-pyrrol-1-yl)ethyl)urea], for which the “functional classification given with the label” value on MOR is “DD 144 (ANTAGONIST, Covalent) [drawing 455]”.

With `CC(C)[C@H](CNC(=O)c1ccc([N+](=O)[O-])s1)N1CCc2ccccc2C1` [Compound 8], on μOR [18], the “Gi/o activation / μOR agonist activity” value is reported as “activated Gi/o”.
